Measurements reported in PubChem BioAssay AID256 (DTP/NCI, 2004).
Values joined by “and” are separate entries in the source; they are usually repeats but may differ in a detail not shown here. Equal entries are not always repeated. Inconclusive results and toxic doses are left out.

Test system: CD2F1 mice, L1210 leukemia ip, survival T/C
Assay: NCI In Vivo Anticancer Drug Screen. Data for tumor model L1210 Leukemia (intraperitoneal) in CD2F1 (CDF1) mice
Conditions: endpoint: mean survival time, higher = longer survival
Method in brief: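 Implant tumor; dose compound or vehicle; measure endpoint in both groups; report treated divided by control.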

[1] = dose: 100.0 mg/kg/injection, schedule: Q04DX003 (ip), vehicle: saline with Tween-80
[2] = dose: 200.0 mg/kg/injection, schedule: Q04DX003 (ip), vehicle: saline with Tween-80
[3] = dose: 100.0 mg/kg/injection, schedule: Q01DX001 (ip), vehicle: saline
[4] = dose: 100.0 mg/kg/injection, schedule: Q04DX003 (ip), vehicle: saline
[5] = dose: 200.0 mg/kg/injection, schedule: Q01DX001 (ip), vehicle: saline
[6] = dose: 200.0 mg/kg/injection, schedule: Q04DX003 (ip), vehicle: saline
[7] = dose: 400.0 mg/kg/injection, schedule: Q01DX001 (ip), vehicle: saline
[8] = dose: 400.0 mg/kg/injection, schedule: Q04DX003 (ip), vehicle: saline
[9] = dose: 100.0 mg/kg/injection, schedule: Q01DX009 (ip), vehicle: saline with Tween-80
[10] = dose: 200.0 mg/kg/injection, schedule: Q01DX009 (ip), vehicle: saline with Tween-80
[11] = dose: 400.0 mg/kg/injection, schedule: Q01DX009 (ip), vehicle: saline with Tween-80
[12] = dose: 400.0 mg/kg/injection, schedule: Q04DX003 (ip), vehicle: saline with Tween-80

Nc1nc2nc3c(nc2c(=O)[nH]1)CN(c1ccc(C(=O)O)cc1)C3=O
T/C [1]: 95 % of control
T/C [2]: 97 % of control

O=[N+]([O-])c1cccc(N=C(c2ccccc2)N(O)c2ccccc2)c1
T/C [3]: 100 % of control
T/C [4]: 102 % of control
T/C [5]: 100 % of control
T/C [6]: 97 % of control
T/C [7]: 100 % of control
T/C [8]: 103 % of control

CCOc1ccc(N2C(=O)CC(Sc3ccccc3N)C2=O)cc1 (configuration not stated)
T/C (dose: 100.0 mg/kg/injection, schedule: Q01DX009 (ip), vehicle: acetone): 93 % of control
T/C (dose: 200.0 mg/kg/injection, schedule: Q01DX009 (ip), vehicle: acetone): 104 % of control
T/C (dose: 400.0 mg/kg/injection, schedule: Q01DX009 (ip), vehicle: acetone): 112 % of control

CC(=O)NC(C(=O)O)=C(C)C
T/C [9]: 96 % of control
T/C [10]: 105 % of control
T/C [11]: 96 % of control

CC(=O)C(C(C)=O)C1=C(Cl)C(=O)c2ccccc2C1=O
T/C (dose: 75.0 mg/kg/injection, schedule: Q01DX001 (ip), vehicle: other): 94 % of control
T/C (dose: 150.0 mg/kg/injection, schedule: Q01DX001 (ip), vehicle: other): 100 % of control
T/C (dose: 300.0 mg/kg/injection, schedule: Q01DX001 (ip), vehicle: other): 97 % of control

O=C1NNC(=O)C2C3CCC(C3)C12 (configuration not stated)
T/C (dose: 100.0 mg/kg/injection, schedule: Q04DX003 (ip), vehicle: saline sonified): 95 % of control
T/C (dose: 200.0 mg/kg/injection, schedule: Q04DX003 (ip), vehicle: saline sonified): 89 % of control

CCOC(=O)/C=C/C1=CCCCC1
T/C (dose: 50.0 mg/kg/injection, schedule: Q01DX009 (ip), vehicle: saline with Tween-80): 101 % of control
T/C [9]: 96 % of control
T/C [10]: 108 % of control

CCN(CC)C(=S)SCc1c(Cl)c(Cl)c(Cl)c(Cl)c1Cl
T/C (dose: 100.0 mg/kg/injection, schedule: Q04DX002 (ip), vehicle: saline with Tween-80): 94 % of control
T/C (dose: 200.0 mg/kg/injection, schedule: Q04DX002 (ip), vehicle: saline with Tween-80): 91 % of control
T/C (dose: 400.0 mg/kg/injection, schedule: Q04DX002 (ip), vehicle: saline with Tween-80): 97 % of control

CCCOC(C(=O)OC1CCN(C)CC1)(c1ccccc1)c1ccccc1
T/C (dose: 12.5 mg/kg/injection, schedule: Q04DX003 (ip), vehicle: saline): 108 % of control
T/C (dose: 25.0 mg/kg/injection, schedule: Q04DX003 (ip), vehicle: saline): 102 % of control
T/C (dose: 50.0 mg/kg/injection, schedule: Q04DX003 (ip), vehicle: saline): 97 % of control

CC1CC([O-])=N/[N+]1=C\c1ccccc1 (configuration not stated)
T/C [4]: 101 % of control
T/C [6]: 96 % of control
T/C [8]: 94 % of control

COc1ccc(NC(=O)Nc2ccc(C(C)C)cc2)cc1
T/C [1]: 93 % of control
T/C [2]: 91 % of control
T/C [12]: 95 % of control

CCN1CCCC(Nc2nc(Nc3cc(Cl)cc(Cl)c3)nc3ccc(Cl)cc23)C1 (configuration not stated)
T/C (dose: 25.0 mg/kg/injection, schedule: Q01DX009 (ip), vehicle: saline with Tween-80): 103 % of control
T/C [1]: 90 % of control

CC1OC(OC2CC(O)(C(=O)CO)Cc3c(O)c4c(c(O)c32)C(=O)c2ccccc2C4=O)CC(N)C1O (configuration not stated)
T/C (dose: 0.03 mg/kg/injection, schedule: Q01DX009 (ip), vehicle: water): 114 % of control
T/C (dose: 0.13 mg/kg/injection, schedule: Q01DX009 (ip), vehicle: water): 151 % of control
T/C (dose: 0.25 mg/kg/injection, schedule: Q01DX009 (ip), vehicle: water): 175 % of control
T/C (dose: 1.0 mg/kg/injection, schedule: Q01DX009 (ip), vehicle: water): 102 % of control

O=C(CO)C(O)C(O)C(O)C(O)CO (configuration not stated)
T/C [3]: 100 % of control and 105 % of control
T/C [5]: 102 % of control and 94 % of control
T/C [7]: 96 % of control

O=C(O)CCc1c[nH]c2ccccc12
T/C [1]: 98 % of control
T/C [2]: 102 % of control
T/C [12]: 108 % of control

O=C(O)/C(=C/c1ccc(O)cc1)c1ccccc1
T/C [9]: 88 % of control
T/C [1]: 101 % of control
T/C [10]: 93 % of control
T/C [2]: 91 % of control
T/C [11]: 87 % of control
T/C [12]: 96 % of control
